Results as given in ChEMBL document CHEMBL1136837, “Unified QSAR approach to antimicrobials. 4. Multi-target QSAR modeling and comparative multi-distance study of the giant components of antiviral drug-drug complex networks” (Bioorg Med Chem, 2009).

Test system: Human immunodeficiency virus 1
Assay: Antiviral activity against HIV1
Assay type: functional, organism-based

Row | Structure (SMILES) | IC50 [µM]
1 | Cc1cccc(C)c1C(=O)N1CCC(C)(N2CCC(Cc3ccc(Br)cc3)CC2)CC1 | 0.01
2 | CC(C)CN(C[C@@H](O)[C@H](Cc1ccccc1)NC(=O)O[C@H]1CCOC1)S(=O)(=O)c1ccc(N)cc1 | 0.002
3 | C=C(C)[C@@H]1CC[C@]2(C(=O)NCCCCCCCC(=O)O)CC[C@]3(C)[C@H](CC[C@@H]4[C@@]5(C)CC[C@H](O)C(C)(C)[C@@H]5CC[C@]43C)[C@@H]12 | 1
4 | C=C(C)[C@@H]1CC[C@]2(C(=O)NCCCCCCCC(=O)N[C@@H](CC(C)C)[C@H](O)CC(=O)O)CC[C@]3(C)[C@H](CC[C@@H]4[C@@]5(C)CC[C@H](O)C(C)(C)[C@@H]5CC[C@]43C)[C@@H]12 | 0.33
5 | C=C(C)[C@@H]1CC[C@]2(C(=O)NCCCCCCCCCCC(=O)N[C@@H](CC(C)C)C(=O)O)CC[C@]3(C)[C@H](CC[C@@H]4[C@@]5(C)CC[C@H](O)C(C)(C)[C@@H]5CC[C@]43C)[C@@H]12 | 0.46
6 | O=C(c1cc(Cc2ccccc2)ccn1)c1ccc2cccnc2c1O | 0.05
7 | COC(=O)C(=O)CC(=O)c1cn(C)c2cc3c(cc12)OCO3 | 31
8 | COC(=O)C(=O)CC(=O)c1cc2ccccc2n1C | 106
9 | O=C(O)C(=O)CC(=O)c1cccc(Cc2ccccc2)c1 | 0.1
10 | Cc1cc(OCCCS(N)(=O)=O)ccc1NC(=O)COc1ccc(Cl)cc1C(=O)c1cc(F)cc(C(F)(F)F)c1 | 0.0024
11 | Nc1ncnc2c1ncn2C1C=CC(OCP(=O)(O)OP(=O)(O)OP(=O)(O)OP(=O)(O)COC2C=CC(n3cnc4c(N)ncnc43)C2)C1 (configuration not stated) | 2
12 | Cc1cc(S(N)(=O)=O)ccc1NC(=O)COc1ccc(Cl)cc1C(=O)c1cc(F)cc(C(F)(F)F)c1 | 0.004
13 | C=C(C)[C@@H]1CC[C@]2(C(=O)NCCCCCCCCCCC(=O)O)CC[C@]3(C)[C@H](CC[C@@H]4[C@@]5(C)CC[C@H](O)C(C)(C)[C@@H]5CC[C@]43C)[C@@H]12 | 0.7
14 | C=C(C)[C@@H]1CC[C@]2(C(=O)N[C@@H](CC(C)C)C(=O)O)CC[C@]3(C)[C@H](CC[C@@H]4[C@@]5(C)CC[C@H](O)C(C)(C)[C@@H]5CC[C@]43C)[C@@H]12 | 3.22
15 | CC(c1cc(=O)[nH]c(SC2CCCC2)n1)c1c(F)cccc1F (configuration not stated) | 0.03
16 | CC(C)OC(=O)c1cn(S(=O)(=O)c2ccccc2)c2ccccc12 | 5
17 | NC(=O)c1cn(S(=O)(=O)c2ccccc2)c2cc(Cl)ccc12 | 200
18 | O=c1cc(Cc2c(F)cccc2F)nc(SC2CCCC2)[nH]1 | 0.08
19 | CCO/N=C(\c1ccc(Br)cc1)C1CCN(C2(C)CCN(C(=O)c3c(C)ccc[n+]3[O-])CC2)CC1 | 0.0017
20 | COc1ccnc2[nH]cc(C(=O)C(=O)N3CCN(C(=O)c4ccccc4)C[C@H]3C)c12 | 0.00085
21 | C=C(C)[C@@H]1CC[C@]2(C(=O)NCCC(=O)N[C@@H](CC(C)C)C(=O)O)CC[C@]3(C)[C@H](CC[C@@H]4[C@@]5(C)CC[C@H](O)C(C)(C)[C@@H]5CC[C@]43C)[C@@H]12 | 39
22 | Cc1cn([C@@H]2S[C@H](CO)C=C2F)c(=O)nc1O | 92.3
23 | C=C(C)[C@@H]1CC[C@]2(C(=O)NCCCCCCCC(=O)N[C@@H](CC(C)C)C(=O)O)CC[C@]3(C)[C@H](CC[C@@H]4[C@@]5(C)CC[C@H](O)C(C)(C)[C@@H]5CC[C@]43C)[C@@H]12 | 1.38
24 | O=c1[nH]cnc2c1ncn2[C@@H]1S[C@H](CO)C=C1F | 43.6
25 | CC(=O)NC1=CC(=O)c2ccc(-c3[nH]c(C(=O)O)cc4c5ccccc5nc3-4)nc2C1=O | 13.3
26 | COC(=O)c1[nH]c(-c2ccc3c(n2)C(=O)C(NC(C)=O)=CC3=O)c2nc3ccccc3c-2c1C | 15.1

Row | Structure (SMILES) | IC50 [µM]
27 | O=C(c1cccc(Cc2ccccc2)c1)c1ncc2cccnc2c1O | 0.04
28 | CCn1cc(C(=O)CC(=O)C(=O)OC)c2ccccc21 | 19
29 | Cc1c(C(C)c2c(F)cccc2F)nc(NC2CCCC2)[nH]c1=O (configuration not stated) | 0.035
30 | CCCCCCCCOC(=O)c1cc2c([nH]c3ccccc32)c(-c2ccc3c(n2)C(=O)C(NC(C)=O)=CC3=O)n1 | 7.1
31 | C=C(C)[C@@H]1CC[C@]2(C(=O)N[C@@H](CC(C)C)C(=O)OC)CC[C@]3(C)[C@H](CC[C@@H]4[C@@]5(C)CC[C@H](OC(C)=O)C(C)(C)[C@@H]5CC[C@]43C)[C@@H]12 | 40
32 | CC(=O)Oc1ccc(/C=C/C(=O)O[C@H](C(=O)O)[C@H](OC(=O)/C=C/c2ccc(OC(C)=O)c(OC(C)=O)c2)C(=O)O)cc1OC(C)=O | 15.7
33 | O=C(O)/C(O)=C/C(=O)c1c[nH]c2ccccc12 | 1.43
34 | Nc1nc2c(ncn2C2C=CC(OCP(=O)(O)OP(=O)(O)OP(=O)(O)OP(=O)(O)COC3C=CC(n4cnc5c(N)ncnc54)C3)C2)c(=O)[nH]1 (configuration not stated) | 0.7
35 | OC[C@@H]1C=C(F)[C@@H](n2cnc3c(O)ncnc32)O1 | 100
36 | O=C(O)/C(O)=C/C(=O)c1ccccc1 | 25
37 | O=C(O)/C(O)=C/C(=O)c1c[nH]c2ccc(Cl)cc12 | 0.52
38 | Nc1nc(Cl)c2ncn([C@@H]3O[C@H](CO)C=C3F)c2n1 | 4.3
39 | COc1ccc(Cn2nnnc2/C(O)=C/C(=O)c2c[nH]c3ccccc23)cc1 | 100
40 | COc1ccc2[nH]cc(C(=O)/C=C(\O)c3nnn[nH]3)c2c1 | 40
41 | Cc1cn([C@@H]2O[C@H](CO)C=C2F)c(=O)nc1N | 100
42 | CCn1cc(C(=O)/C=C(/O)C(=O)O)c2ccccc21 | 9
43 | Cn1cc(C(=O)/C=C(/O)C(=O)O)c2ccccc21 | 37
44 | Nc1nc(=O)n([C@H]2O[C@H](CO)C=C2F)cc1F | 100
45 | O=C(/C=C(\O)c1nnn[nH]1)c1c[nH]c2ccc(F)cc12 | 1.8
46 | CCOC(=O)c1[nH]c2c(Cl)cccc2c1S(=O)(=O)c1ccccc1N | 200
47 | CC(C)C[C@H](NC(=O)[C@H](Cc1ccccc1)C[C@H](O)[C@@H](CC(=O)OC(C)(C)C)Cc1ccccc1)C(=O)N[C@@H](Cc1ccccc1)C(N)=O | 0.6
48 | NC(=O)O[C@@H]1Cc2ccccc2C1C1=C(O)[C@](Cc2ccccc2)(C[C@H](O)[C@H](Cc2ccccc2)NC(=O)O[C@H]2CCOC2)N=C1 (some centres not stated) | 2
49 | Cc1c(O)cccc1C(=O)N[C@@H](CSc1ccccc1)[C@H](O)CN1C[C@H]2CCCC[C@H]2C[C@H]1C(=O)NC(C)(C)C | 0.027
50 | NC(=O)c1cn(S(=O)(=O)c2ccccc2)c2ccccc12 | 32
51 | CCOC(=O)c1cc2ccc(Cl)cc2n1S(=O)(=O)c1ccc(Cl)cc1 | 200
52 | NC(=O)c1cc2ccccc2n1S(=O)(=O)c1ccccc1 | 15

The remaining lines, values ahead:

Row | IC50 [µM] | Structure (SMILES)
53 | 0.023 | Cc1cccc(C)c1C(=O)N1CCC(C)(N2CCC(Cc3ccc(Cl)cc3)CC2)CC1
54 | 0.026 | COc1ccc(CC2CCN(C3(C)CCN(C(=O)c4c(C)cccc4C)CC3)CC2)cc1
55 | 0.004 | CO/N=C(\c1ccc(Br)cc1)C1CCN(C2(C)CCN(C(=O)c3c(C)cccc3O)CC2)CC1
56 | 0.0064 | CCO/N=C(\c1ccc(Br)cc1)C1CCN(C2(C)CCN(C(=O)c3c(C)cc(C)nc3O)CC2)CC1
57 | 100 | O=c1nc(O)ccn1[C@@H]1S[C@H](CO)C=C1F
58 | 80.5 | Nc1nc2c(ncn2[C@@H]2S[C@H](CO)C=C2F)c(=O)[nH]1
59 | 0.07 | O=c1cc(Cc2c(F)cccc2F)nc(NC2CCCC2)[nH]1
60 | 0.04 | CC(c1cc(=O)[nH]c(NC2CCCC2)n1)c1c(F)cccc1F (configuration not stated)
61 | 60 | CCn1c(C(=O)CC(=O)C(=O)OC)cc2ccccc21
62 | 20 | Nc1ncnc2c1ncn2C1C=CC(OCP(=O)(O)OP(=O)(O)C(F)(F)P(=O)(O)OP(=O)(O)COC2C=CC(n3cnc4c(N)ncnc43)C2)C1 (configuration not stated)
63 | 0.005 | Cc1c(C(C)c2c(F)cccc2F)nc(SC2CCCC2)[nH]c1=O (configuration not stated)
64 | 200 | Nc1ncnc2c1ncn2C1C=CC(OCP(=O)(O)OP(=O)(O)C(Br)(Br)P(=O)(O)OP(=O)(O)COC2C=CC(n3cnc4c(N)ncnc43)C2)C1 (configuration not stated)
65 | 0.08 | Cc1c(Cc2c(F)cccc2F)nc(SC2CCCC2)[nH]c1=O
66 | 66 | NC(=O)c1cc2ccc(Cl)cc2n1S(=O)(=O)c1ccccc1
67 | 200 | CCOC(=O)c1[nH]c2ccccc2c1S(=O)(=O)c1cc(Cl)ccc1N
68 | 10 | O=C(OC(C(=O)O)C(OC(=O)c1cccs1)C(=O)O)c1cccs1 (configuration not stated)
69 | 32 | C=C(C)[C@@H]1CC[C@]2(C(=O)NCCCCCCCCCCC(=O)N[C@@H](CC(C)C)C(=O)OC)CC[C@]3(C)[C@H](CC[C@@H]4[C@@]5(C)CC[C@H](O)C(C)(C)[C@@H]5CC[C@]43C)[C@@H]12
70 | 0.44 | Nc1ncnc2c1ncn2[C@@H]1O[C@H](CO)C=C1F

Row | IC50 [µM] | Structure (SMILES)
71 | 11.6 | Nc1nc(=O)n([C@@H]2S[C@H](CO)C=C2F)cc1F
72 | 0.03 | Cc1c(Cc2c(F)cccc2F)nc(NC2CCCC2)[nH]c1=O
73 | 200 | CC(C)OC(=O)c1cn(S(=O)(=O)c2ccccc2)c2ccc(Cl)cc12
74 | 0.05 | Cc1ccc(S(=O)(=O)c2c(C(=O)NN)[nH]c3ccc(Cl)cc23)cc1
75 | 0.0014 | CCO/N=C(\c1ccc(Br)cc1)C1CCN(C2(C)CCN(C(=O)c3cccnc3C)CC2)CC1
76 | 28 | C=C(C)[C@@H]1CC[C@]2(C(=O)NCCCCCCCC(=O)N[C@@H](CC(C)C)[C@H](O)CC(=O)OCc3ccccc3)CC[C@]3(C)[C@H](CC[C@@H]4[C@@]5(C)CC[C@H](OC(C)=O)C(C)(C)[C@@H]5CC[C@]43C)[C@@H]12
77 | 10 | O=C(OC(C(=O)O)C(OC(=O)c1ccsc1)C(=O)O)c1ccsc1 (configuration not stated)
78 | 2.6 | Nc1nc(O)c2ncn([C@@H]3O[C@H](CO)C=C3F)c2n1
79 | 100 | Nc1ccn([C@H]2O[C@H](CO)C=C2F)c(=O)n1
80 | 1.9 | O=C(/C=C(\O)c1nnn[nH]1)c1c[nH]c2ccccc12
81 | 0.35 | O=C(O)/C(O)=C/C(=O)c1cccc(OCc2ccccc2)c1
82 | 1.83 | O=C(O)/C(O)=C/C(=O)c1cccc(C(=O)/C=C(\O)C(=O)O)c1
83 | 100 | O=C(O)/C(O)=C/C(=O)c1ccnc2ccccc12
84 | 15 | Nc1nc2c(ncn2C2C=CC(OCP(=O)(O)OP(=O)(O)C(F)(F)P(=O)(O)OP(=O)(O)COC3C=CC(n4cnc5c(N)ncnc54)C3)C2)c(=O)[nH]1 (configuration not stated)
85 | 1.28 | O=C(O)/C(O)=C/C(=O)c1ccc(C(=O)/C=C(\O)C(=O)O)cc1
86 | 100 | Cc1cn([C@H]2O[C@H](CO)C=C2F)c(=O)nc1N
87 | 0.48 | O=C(O)/C(O)=C/C(=O)c1cc(OCc2ccccc2)cc(OCc2ccccc2)c1
